Measured values published in patent US6423727B1, “Certain thiol inhibitors of endothelin-converting enzyme” (Novartis AG, priority 1998, dated 2002).
Counter-ions that a name gives are not always drawn. Ends that are not written are not given here.

Key:
[1] = target: rabbit antibodies that recognize specifically the carboxyl terminal tryptophan of ET-1; assay: radioimmunoassay: displacement of [125I]ET-1 binding to the antibodies; conditions: mean±SEM, n=3-5; 4° C. overnight
Method: Diluted samples (200 μL) obtained from the above enzyme assay are incubated at 4° C. overnight with 25 μL each of [^125I]ET-1 (10,000 cpm/tube) and 1:20,000-fold diluted rabbit antibodies that recognize specifically the carboxyl terminal tryptophan of ET-1. Goat anti-rabbit antibodies coupled to magnetic beads (70 μg) are then added to each tube, and the reaction mixture is further incubated for 30 min at room temperature. The beads are pelleted using a magnetic rack. The supernatant is decanted, and the radioactivity in the pellet is counted in a gamma counter. Total and nonspecific binding are measured in the absence of nonradioactive ET-1 and anti-ET antibodies, respectively.

melting point [°C]	IC50 for displacement of [125I]ET-1 binding to the antibodies [1]	Compound
215 to 217	–	CC(C)C[C@H](S)C(=O)NC1(C(=O)NC(Cc2ccc(-c3ccccc3O)cc2)C(=O)O)CCCC1 (stereo in doubt) [3-(2′-Hydroxy-biphenyl-4-yl)-2-{[1-(2-mercapto-4-methyl-pentanoylamino)-cyclopentanecarbonyl]-amino}-propionic acid]
115 to 120	–	CC(C)[C@H](S)C(=O)NC1(C(=O)N[C@@H](Cc2ccc(-c3ccccc3)cc2)C(=O)O)CCc2ccccc21 (stereo in doubt) [3-Biphenyl-4-yl-2-{[1-(2-mercapto-3-methyl-butyrylamino)-indane-1-carbonyl]-amino}-propionic acid]
159 to 160	–	COc1cccc(-c2ccc(CC(NC(=O)C3(NC(=O)[C@@H](S)C(C)C)CCCC3)C(=O)O)cc2)c1 (stereo in doubt) [2-{[1-(2-Mercapto-3-methyl-butanoylamino)-cyclopentanecarbonyl]-amino}-3-(3′-methoxy-biphenyl-4-yl)-propionic acid]
–	21 ± 2 fmol	ET-1: endothelin-1, formed from big ET-1 by ECE; nonradioactive competitor in the radioimmunoassay
170 to 184	–	CC[C@@H](C)[C@H](S)C(=O)NC1(C(=O)NC(Cc2ccc(-c3cncnc3)cc2)C(=O)O)CCCC1 (stereo in doubt) (as salt: hydrochloride) [2-{[1-(2-Mercapto-3-methyl-pentanoylamino)-cyclopentanecarbonyl]-amino}-3-(4-pyrimidin-5-yl-phenyl)-propionic acid hydrochloride]
158 to 164	–	CC(C)[C@H](S)C(=O)NC1(C(=O)N[C@@H](Cc2cccc3c2CCCC3)C(=O)O)CCCC1 (stereo in doubt) [2-{[1-(2-Mercapto-3-methylbutanoylamino)-cyclopentanecarbonyl]-amino}-3-(5,6,7,8-tetrahydro-naphthalen-1-yl)-propionic acid]
190 to 192	–	CC(=O)N1CCCC(c2ccc(C[C@H](NC(=O)C3(NC(=O)[C@@H](S)C(C)C)CCCC3)C(=O)O)cc2)C1 (stereo in doubt) [3-[4-(1-Acetyl-piperidin-3-yl)-phenyl]-2-{[1-(2-mercapto-3-methyl-butanoylamino)-cyclopentanecarbonyl]-amino}-propionic acid]
166 to 168	–	O=C(O)[C@H](Cc1ccc(-c2ccccc2)cc1)NC(=O)C1(NC(=O)[C@@H](S)Cc2ccc3ccccc3c2)CCCC1 (stereo in doubt) [3-Biphenyl-4-yl-2-{[1-(2-mercapto-3-naphthalen-2-yl-propionylamino)-cyclopentanecarbonyl]-amino}-propionic acid]
206 to 208	–	CC[C@H](C)[C@H](S)C(=O)NC1(C(=O)NC(Cc2ccc(-c3cncnc3)cc2)C(=O)O)CCCC1 (stereo in doubt) [2-{[1-(2-Mercapto-3-methyl-pentanoylamino)-cyclopentanecarbonyl]-amino}-3-(4-pyrimidin-5-yl-phenyl)-propionic acid]
104 to 110	–	CC(C)C[C@H](S)C(=O)NC1(C(=O)N[C@@H](Cc2ccc(-c3ccno3)cc2)C(=O)O)CCCC1 (stereo in doubt) [3-(4-Isoxazole-5-yl-phenyl)-2-{[1-(2-mercapto4-methyl-pentanoylamino)-cyclopentanecarbonyl]-amino}-propionic acid]
121 to 123	–	COc1cc(C[C@H](NC(=O)C2(NC(=O)[C@@H](S)C(C)C)CCCC2)C(=O)O)ccc1-c1ccccc1 (stereo in doubt) [2-{[1-(2-Mercapto-3-methylbutanoylamino)-cyclopentanecarbonyl]-amino}-3-(2-methoxybiphenyl-4-yl)-propionic acid]
–	260,000±66,000 fmol	big ET-1: Human big ET-1, the ECE substrate used in the enzyme assay (CSCSSLMDKECVYFCHLDIIWVNTPEHVVPYGLGSPRS; ends and bridges not checked; cysteine pairing not given here; UniProt P05305 53-90, looked up)
179 to 181	–	COc1ccc(-c2ccc(C[C@H](NC(=O)C3(NC(=O)[C@@H](S)C(C)C)CCCC3)C(=O)O)cc2)cc1 (stereo in doubt) [2-{[1-(2-Mercapto-3-methyl-butanoylamino)-cyclopentanecarbonyl]-amino}-3-(4′-methoxy-biphenyl-4-yl)-propionic acid]
135 to 137	–	CC(C)CC(S)C(=O)NC1(C(=O)NC(Cc2csc3ccccc23)C(=O)O)CCCC1 (centres unmarked) [Example 13(e), 3-Benzo[b]thiophen-3-yl-2-{[1-(2-mercapto4-methyl-pentanoylamino)-cyclopentanecarbonyl]-amino}-propionic acid]
